Experiments:
[1] = molecular target: T1, human estrogen receptor α (hERα) (Homo sapiens, UniProt P03372); assay: antagonistic activity in CHO cells co-transfected with hERα, rat oxytocin promoter and luciferase reporter gene; type: cell-based; details: antagonism of 17β-estradiol-induced transactivation, CHO-hERα-RO-LUC; read-out: ERα pIC50 (converted)
T1 sequence (P03372 1-595): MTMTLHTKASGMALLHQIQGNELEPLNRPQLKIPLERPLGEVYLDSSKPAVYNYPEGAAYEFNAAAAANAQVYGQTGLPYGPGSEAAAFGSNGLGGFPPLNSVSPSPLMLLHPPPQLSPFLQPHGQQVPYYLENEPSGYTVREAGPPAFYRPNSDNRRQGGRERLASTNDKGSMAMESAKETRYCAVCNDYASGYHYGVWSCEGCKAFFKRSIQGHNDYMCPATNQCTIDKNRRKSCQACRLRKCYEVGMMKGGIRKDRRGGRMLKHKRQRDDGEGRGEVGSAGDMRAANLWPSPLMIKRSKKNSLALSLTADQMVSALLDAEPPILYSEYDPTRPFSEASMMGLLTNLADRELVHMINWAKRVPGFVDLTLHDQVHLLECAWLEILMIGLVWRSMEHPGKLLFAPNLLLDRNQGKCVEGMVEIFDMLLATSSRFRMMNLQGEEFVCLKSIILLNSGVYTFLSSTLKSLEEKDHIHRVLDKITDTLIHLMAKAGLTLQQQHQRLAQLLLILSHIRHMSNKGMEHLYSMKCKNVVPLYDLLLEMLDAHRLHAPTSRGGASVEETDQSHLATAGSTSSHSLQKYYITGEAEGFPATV
Summary of the method: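 Efficacy is the fraction of maximal inhibition of 17β-estradiol-activated receptor, normalised to ICI 164,384 maximal inhibition. Read-out is luciferase in CHO cells stably co-transfected with human ERα and an oxytocin-promoter-driven reporter.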

[2] = molecular target: T2, estrogen receptor alpha (Homo sapiens, UniProt P03372); assay: ERα downregulation assay in T47D breast cancer cells (ERα ELISA); type: cell-based; details: downregulation of ERα relative to fulvestrant (100%), 1E-5 M, 24 hours, negative = upregulation
T2 construct: endogenous in cells; host or cells: T47D human breast cancer cells (ATCC)
T2 sequence (P03372 1-595): T1 sequence (P03372 1-595)
Summary of the method: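 T47D cells were treated with 1E-5 M test compound for 24 hours, then lysed in the well. ERα protein content was measured by ELISA. Efficacy is given as fraction of maximal response relative to fulvestrant, defined as 100% downregulation.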

[3] = Rapid Rat PK after oral administration; type: in vivo, rats (Rattus Norvegicus); details: 20 umol/kg, plasma, oral 20 μmol/kg; for AUC: AUC(0-6h), read-out: RRat AUC; for Cmax: read-out: RRat Cmax
Experimental: In the context of the present invention with “orally bioavailable” is meant that compounds, when dosed orally to a rat show oral exposure as determined by quantification of compound plasma levels in that rat. Typically, compounds are dosed orally at 20 μmol/kg, as described in Example 14 hereinbelow. Oral exposure is determined by measuring plasma levels over the time range of 0-6 h after dosing and is expressed by AUC(0-6h).
This test was used to determine the pharmacokinetic parameters (AUC(0-6h), Cmax and Tmax) after oral administration of compounds in male (intact or castrated) or female (intact or ovariectomized) rats (Rattus Norvegicus).
After oral administration of a compound at 20 μmol/kg, blood was collected at various time points (0.5, 1, 2, 3, 4 and 6 hours after compound administration) via the tail vein. Plasma samples were pooled per time point, after which the concentration was determined in plasma by means of LC-MS. Pharmacokinetic parameters (AUC(0-6h), Cmax and Tmax) were derived from the obtained concentration versus time curves using the non-compartmental analysis module in Animals! or WinNonlin.

[4] = test system: MCF-7H cells; assay: 7-day in vitro proliferation assay in tamoxifen-resistant MCF-7H breast cancer cells (methyl-3H-thymidine incorporation); type: cell-based, human; details: Homo sapiens, MCF7, 168 h; efficacy (fraction of maximal response relative to E2) in MCF-7H proliferation; read-out: MCF7 ia
Experimental: To what extent compounds are capable of stimulating proliferation in ER-positive, tamoxifen-resistant breast cancer cells is tested in a 7-day in vitro proliferation assay using MCF-7H cells. More specifically, this in vitro bioassay is used to determine the efficacy (fraction of maximal response), pEC50, and relative potency of the compound to induce proliferation by comparing the data for this compound with those of the reference compound 17β-estradiol (E2) in the same test.
A more detailed description of the method used is as follows.
Cell culture: The human epithelial breast cancer cell line MCF-7H (origin: Hubrecht Laboratory, Utrecht, The Netherlands) was routinely maintained in complete medium which is a 1:1 mixture of Ham's F12 medium and Dulbecco's Modified Eagle Medium (DMEM; Invitrogen, Carlsbad, USA) without phenol red and enriched with 5% fetal calf serum (FCS; Hyclone, Utah, USA), 100 μg/ml streptomycin and 100 units/ml penicillin adapted to contain:
Cells were grown in 80 cm^2 culture flasks (Nunc, Roskilde, Denmark) and kept in an atmosphere of 5% CO2-95% air at 37 degrees Celsius. Cells were subcultured when they reached about 80-90% confluence, resulting in one passage a week. Subculturing includes detaching the cells using trypsin/EDTA and diluting the cell suspension 10 times.
Methyl-^3H-thymidine incorporation assay: MCF-7H cells were starved overnight in assay medium containing 5% charcoal-treated (CT) bovine calf serum (BCS; Hyclone) instead of FCS and a final concentration of 1.0 μg/ml bovine insulin, the day before plating. Cells were plated in assay medium containing 5% CT BCS, in white 24-wells plates (Perkin Elmer, Shelton, USA), at a density of 7.5×10^3 cells per well, each well containing 630 μL assay medium. Cells were allowed to attach and spread for 24 h before stimulation with reference and/or test compound(s). After a stimulation period of 7 days, 0.25 μCi/well of methyl-^3H-thymidine (GE Healthcare Limited, Buckinghamshire, UK) was added per well. Cultures were maintained in an atmosphere of 5% CO2-95% air at 37 degrees Celsius. After overnight incubation, excess methyl-^3H-thymidine was aspirated and the cells were washed with phosphate-buffered saline (PBS). After 1 h of incubation with 1 ml scintillation fluid Microscint-20 (Perkin Elmer), radioactivity was measured in a Packard TOP-count NXT microplate scintillation counter (Perkin Elmer).

Row | SMILES | IC50 [1] [nM] | DR (%) [2] [%] | AUC [3] [µM·h] | Cmax [3] [nM] | Emax [4] [%]
1 | CCCN1CC(Oc2ccc(C(O)c3c(-c4ccccc4Cl)noc3-c3ccc(O)cc3)cc2)C1 (stereo not shown) [compound 7av, 4-(3-(2-chlorophenyl)-4-(hydroxy(4-(1-propylazetidin-3-yloxy)phenyl)methyl)isoxazol-5-yl)phenol] | 25.1 | 84 | 3.8 | 990 | 
2 | CC(C)CN1CC(Oc2ccc(-c3c(-c4ccccc4Cl)noc3-c3ccc(O)cc3)cc2)C1.Cl [compound 7w, 4-(3-(2-chlorophenyl)-4-(4-(1-isobutylazetidin-3-yloxy)phenyl)isoxazol-5-yl)-phenol hydrochloride] | 0.316 | 32 | 1.55 | 520 | 
3 | CCCN1CC(Oc2ccc(C(=O)c3c(-c4c(F)cccc4F)noc3-c3ccc(O)cc3)cc2)C1.Cl [compound 7ak, (3-(2,6-difluorophenyl)-5-(4-hydroxyphenyl)isoxazol-4-yl)(4-(1-propylazetidin-3-yloxy)phenyl)methanone hydrochloride] | 3.16 | 93 |  |  | 7
4 | CCCN1CC(Oc2ccc(C(=C(CC)c3ccccc3)c3ccccc3)cc2)C1.O=C(O)C(F)(F)F [compound 6u, 3-(4-(1,2-diphenylbut-1-enyl)phenoxy)-1-propylazetidine 2,2,2-trifluoroacetate] | 31.6 | 75 | 1.97 | 450 | 8
5 | CCCN1CC(Oc2ccc(C(=O)c3c(-c4ccccc4Cl)noc3-c3ccc(O)cc3)cc2)C1.Cl [compound 6m, (3-(2-chlorophenyl)-5-(4-hydroxyphenyl)isoxazol-4-yl)(4-(1-propylazetidin-3-yloxy)phenyl)methanone hydrochloride] | 2 | 81 |  |  | 7
6 | Cl.Oc1ccc(-c2onc(-c3ccccc3Cl)c2-c2ccc(OC3CN(CC4CCC4)C3)cc2)cc1 [compound 7z, 4-(3-(2-chlorophenyl)-4-(4-(1-(cyclobutylmethyl)azetidin-3-yloxy)phenyl)-isoxazol-5-yl)phenol hydrochloride] | 0.398 | 58 | 1.03 | 350 | 
7 | CCCN1CC(Oc2ccc(C(=O)c3c(-c4ccccc4C)nsc3-c3ccc(O)cc3)cc2)C1.Cl [compound 7bb, (5-(4-hydroxyphenyl)-3-o-tolylisothiazol-4-yl)(4-(1-propylazetidin-3-yloxy)-phenyl)methanone hydrochloride] | 2 | 90 |  |  | 3
8 | CCCN1CC(Oc2ccc(-c3c(-c4ccccc4Cl)noc3-c3ccc(O)cc3)cc2)C1 [compound 6g, 4-(4-(4-(N-propylazetidin-3-yloxy)phenyl)-3-(2-chlorophenyl)isoxazol-5-yl)-phenol] | 0.251 | 57 | 2.05 | 570 | 2
9 | CCCN1CC(Oc2ccc(C(=O)c3c(-c4ccc(O)cc4)noc3-c3ccccc3C)cc2)C1.Cl [compound 7az, (3-(4-hydroxyphenyl)-5-o-tolylisoxazol-4-yl)(4-(1-propylazetidin-3-yloxy)-phenyl)methanone hydrochloride] | 6.31 | 88 |  |  | 8
10 | Cl.Oc1ccc(-c2onc(-c3ccccc3Cl)c2-c2ccc(OC3CN(CCCF)C3)cc2)cc1 [compound 7aa, 4-(3-(2-chlorophenyl)-4-(4-(1-(3-fluoropropyl)azetidin-3-yloxy)phenyl)isoxazol-5-yl)phenol hydrochloride] | 1 | 93 | 3.58 | 990 | 
11 | CCCN1CC(Oc2ccc(C(=C(CC)c3ccccc3)c3cccc(O)c3)cc2)C1 (mixture of isomers) [compound 6w, (E/Z)-3-(2-phenyl-1-(4-(1-propylazetidin-3-yloxy)phenyl)but-1-enyl)phenol] | 5.01 | 63 | 1.07 | 230 | 
12 | CCCN1CC(Oc2ccc(C(=O)c3c(-c4ccc(O)cc4)sc4cc(O)ccc34)cc2)C1.O=C(O)C(F)(F)F [compound 6d, (6-hydroxy-2-(4-hydroxyphenyl)benzo[b]thiophen-3-yl)(4-(1-propylazetidin-3-yloxy)phenyl)methanone 2,2,2-trifluoroacetate] | 1.58 | 79 |  |  | 5
13 | O=C(c1ccc(OC2CN(CCCF)C2)cc1)c1c(-c2ccccc2Cl)noc1-c1ccc(O)cc1 [compound 7ah] | 2.51 | 94 |  |  | 6
14 | Cl.Oc1ccc(-c2onc(-c3ccccc3Cl)c2-c2ccc(OC3CN(CC4CC4)C3)cc2)cc1 [compound 7y, 4-(3-(2-chlorophenyl)-4-(4-(1-(cyclopropylmethyl)azetidin-3-yloxy)phenyl)-isoxazol-5-yl)phenol hydrochloride] | 0.316 | 57 | 1.2 | 290 | 
15 | CCCN1CC(Oc2ccc([C@@H]3c4ccc(O)cc4CC[C@@H]3c3ccccc3)cc2)C1.Cl [compound 6q, (5R,6S)-6-phenyl-5-(4-(1-propylazetidin-3-yloxy)phenyl)-5,6,7,8-tetrahydronaphthalen-2-ol hydrochloride] | 0.251 | 47 |  |  | 6
